Laboratory results from US10174016B2 (BAYER AKTIENGESELLSCHAFT, priority 2014, dated 2019).

Experiments:
human P2X3 receptor = human P2X3 receptor (Homo sapiens (Human), UniProt P56373); assay: Intracellular calcium measurement (FLIPR, Fluo-4) of antagonist activity at human P2X3 receptors; type: cell-based; details: human P2X3, FLIPR calcium assay, agonist α,β-Me-ATP; read-out: hP2X3 IC50
Method in brief: (§1)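 Antagonism quantified from peak calcium fluorescence (Fluo-4, FLIPR, 90 sec read) evoked by EC80 α,β-Me-ATP, after a 30 min, 37° C. compound pretreatment in 1% DMSO. Human P2X3- or P2X2/3-expressing cells used; triplicate means fitted for IC50, percent maximal inhibition and Hill coefficient.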

human P2X2/3 receptor = human P2X2/3 receptor (Homo sapiens (Human), UniProt P56373+Q9UBL9); assay: Intracellular calcium measurement (FLIPR, Fluo-4) of antagonist activity at human P2X2/3 receptors; type: cell-based; details: human P2X2/3, FLIPR calcium assay, agonist α,β-Me-ATP; read-out: hP2X2/3 IC50
Method in brief: as §1

Chain of human P2X3 receptor (P56373 whole entry): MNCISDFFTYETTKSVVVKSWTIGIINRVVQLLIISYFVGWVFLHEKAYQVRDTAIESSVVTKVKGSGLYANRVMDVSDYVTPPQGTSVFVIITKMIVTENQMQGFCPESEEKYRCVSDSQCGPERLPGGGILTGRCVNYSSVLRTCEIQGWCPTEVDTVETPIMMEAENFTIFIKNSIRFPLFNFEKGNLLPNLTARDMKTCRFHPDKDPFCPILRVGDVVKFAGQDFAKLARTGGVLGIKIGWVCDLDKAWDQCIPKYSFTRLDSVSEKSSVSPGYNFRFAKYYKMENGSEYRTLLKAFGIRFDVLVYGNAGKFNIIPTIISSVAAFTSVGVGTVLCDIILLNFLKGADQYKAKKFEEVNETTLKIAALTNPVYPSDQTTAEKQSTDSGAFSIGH
Chain of human P2X2/3 receptor (P56373 whole entry): as above
Chain of human P2X2/3 receptor (Q9UBL9 whole entry): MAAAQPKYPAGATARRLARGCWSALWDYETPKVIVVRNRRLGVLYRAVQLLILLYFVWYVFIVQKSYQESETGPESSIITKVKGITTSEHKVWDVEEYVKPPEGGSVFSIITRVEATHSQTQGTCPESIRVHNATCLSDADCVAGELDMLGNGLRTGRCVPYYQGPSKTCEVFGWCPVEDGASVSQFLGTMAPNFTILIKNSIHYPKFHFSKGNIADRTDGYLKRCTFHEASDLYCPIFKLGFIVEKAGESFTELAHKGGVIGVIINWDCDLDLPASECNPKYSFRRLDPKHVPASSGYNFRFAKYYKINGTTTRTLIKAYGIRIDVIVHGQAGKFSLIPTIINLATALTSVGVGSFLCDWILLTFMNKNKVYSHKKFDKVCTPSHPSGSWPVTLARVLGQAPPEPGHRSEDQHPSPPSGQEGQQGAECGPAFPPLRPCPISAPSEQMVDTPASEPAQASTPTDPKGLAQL

| SMILES | IC50 (human P2X3 receptor) [nM] | IC50 (human P2X2/3 receptor) [nM] |
| --- | --- | --- |
| C[C@@H](NC(=O)c1cc(OC[C@H]2CN(C)CCO2)cc(-c2ncc(Cl)s2)c1)c1cnc(C(F)(F)F)nc1 [Example 367, 3-(5-chloro-1,3-thiazol-2-yl)-5-{[(2R)-4-methylmorpholin-2-yl]methoxy}-N-{(1R)-1-[2-(trifluoromethyl)pyrimidin-5-yl]ethyl}benzamide] | 13 | 506 |
| Cc1cnc(-c2cc(OC[C@@H]3CN(C)CCO3)cc(C(=O)NCc3cnc(C(F)(F)F)nc3)c2)s1 [Example 368, 3-{[(2S)-4-methylmorpholin-2-yl]methoxy}-5-(5-methyl-1,3-thiazol-2-yl)-N-{[2-(trifluoromethyl)pyrimidin-5-yl]methyl}benzamide] | 84 | 1090 |
| Cc1cnc(-c2cc(OC[C@H]3CN(C)CCO3)cc(C(=O)N[C@H](C)c3ccc(C(F)F)nc3)c2)s1 [Example 369, N-{(1R)-1-[6-(difluoromethyl)pyridin-3-yl]ethyl}-3-{[(2R)-4-methylmorpholin-2-yl]methoxy}-5-(5-methyl-1,3-thiazol-2-yl)benzamide] | 11 | 328 |
| Cc1cnc(-c2cc(OC[C@@H]3CN(C)CCO3)cc(C(=O)N[C@H](C)c3ccc(C(F)(F)F)nc3)c2)s1 [Example 370, 3-{[(2S)-4-methylmorpholin 2-yl]methoxy}-5-(5-methyl-1,3-thiazol-2-yl)-N-{(1R)-1-[6-(trifluoromethyl)pyridin-3-yl]ethyl}benzamide] | 41 | 1010 |
| Cc1cnc(-c2cc(OCC3(F)CN(C)C3)cc(C(=O)N[C@H](C)c3cnc(C(F)(F)F)nc3)c2)s1 [Example 371, 3-[(3-fluoro-1-methylazetidin-3-yl}methoxy]-5-(5-methyl-1,3-thiazol-2-yl)-N-{(1R)-1-[2-(trifluoromethyl)pyrimidin-5-yl]ethyl}benzamide] | 24 | 1170 |
| Cc1cnc(-c2cc(OC[C@H]3CN(C)CCO3)cc(C(=O)NCc3cnc(C(F)(F)F)nc3)c2)s1 [Example 372, 3-{[(2R)-4-methylmorpholin-2-yl]methoxy}-5-(5-methyl-1,3-thiazol-2-yl)-N-{[2-(trifluoromethyl)pyrimidin-5-yl]methyl}benzamide] | 19 | 1210 |
| Cc1cnc(-c2cc(OC[C@H]3CN(C)CCO3)cc(C(=O)N[C@H](C)c3ccc(C(F)(F)F)nn3)c2)s1 [Example 373, 3-{[(2R)-4-methylmorpholin-2-yl]methoxy}-5-(5-methyl-1,3-thiazol-2-yl)-N-{(1R)-1-[6-(trifluoromethyl)pyridazin-3-yl]ethyl}benzamide] | 21 | 2830 |
| Cc1cnc(-c2cc(OC[C@@H]3CN(C)CCO3)cc(C(=O)N[C@H](C)c3ccc(C(F)(F)F)nn3)c2)s1 [Example 374, 3-{[(2S)-4-methylmorpholin-2-yl]methoxy}-5-(5-methyl-1,3-thiazol-2-yl)-N-{(1R)-1-[6-(trifluoromethyl)pyridazin-3-yl]ethyl}benzamide] | 55 | 2560 |
| CCc1cnc(-c2cc(OC[C@@H]3CN(C)CCO3)cc(C(=O)N[C@H](C)c3cnc(C(F)(F)F)nc3)c2)s1 [Example 375, 3-(5-ethyl-1,3-thiazol-2-yl)-5-{[(2S)-4-methylmorpholin-2-yl]methoxy}-N-{(1R)-1-[2-(trifluoromethyl)pyrimidin-5-yl]ethyl}benzamide] | 11 | 185 |
| C[C@@H](NC(=O)c1cc(OC[C@@H]2CN(C)CCO2)cc(-c2ncc(Cl)s2)c1)c1cnc(C(F)(F)F)nc1 [Example 376, 3-(5-chloro-1,3-thiazol-2-yl)-5-{[(2S)-4-methylmorpholin-2-yl]methoxy}-N-{(1R)-1-[2-(trifluoromethyl)pyrimidin-5-yl]ethyl}benzamide] | 32 | 898 |
| CCc1cnc(-c2cc(OC[C@H]3CN(C)CCO3)cc(C(=O)N[C@H](C)c3cnc(C(F)(F)F)nc3)c2)s1 [Example 377, 3-(5-ethyl-1,3-thiazol-2-yl)-5-{[(2R)-4-methylmorpholin-2-yl]methoxy}-N-{(1R)-1-[2-(trifluoromethyl)pyrimidin-5-yl]ethyl}benzamide] | 5 | 273 |
| Cc1cnc(-c2cc(OC[C@@H]3CCCN3C)cc(C(=O)N[C@H](C)c3cnc(C(F)(F)F)nc3)c2)s1 [Example 378, 3-{[(2S)-1-methylpyrrolidin-2-yl]methoxy}-5-(5-methyl-1,3-thiazol-2-yl)-N-{(1R)-1-[2-(trifluoromethyl)pyrimidin-5-yl]ethyl}benzamide] | 60 | 3750 |
| Cc1cnc(-c2cc(OC[C@H]3CCCN3C)cc(C(=O)N[C@H](C)c3cnc(C(F)(F)F)nc3)c2)s1 [Example 379, 3-{[(2R)-1-methylpyrrolidin-2-yl]methoxy}-5 (5-methyl-1,3-thiazol-2-yl)-N-{(1R)-1-[2-(trifluoromethyl)pyrimidin-5-yl]ethyl}benzamide] | 42 | 2750 |
| Cc1cnc(-c2cc(OCC3CCN(C)CC3)cc(C(=O)N[C@H](C)c3cnc(C(F)(F)F)nc3)c2)s1 [Example 380, 3-[(1-methylpiperidin-4-yl)methoxy]-5-(5-methyl-1,3-thiazol-2-yl)-N-{(1R)-1-[2-(trifluoromethyl)pyrimidin-5-yl]ethyl}benzamide] | 32 | 2880 |
| Cc1cnc(-c2cc(OC[C@H]3CN(C(C)C)CCO3)cc(C(=O)N[C@H](C)c3cnc(C(F)(F)F)nc3)c2)s1 [Example 381, 3-(5-methyl-1,3-thiazol-2-yl)-5-{[(2R)-4-(propan-2-yl)morpholin-2-yl]methoxy}-N-{(1R)-1-[2-(trifluoromethyl)pyrimidin-5-yl]ethyl}benzamide] | 16 | 954 |
| Cc1cnc(-c2cc(OCC3(F)CN(C)C3)cc(C(=O)N[C@H](C)c3ccc(C(F)(F)F)nc3)c2)s1 [Example 386, 3-[(3-fluoro-1-methylazetidin-3-yl)methoxy]-5-(5-methyl-1,3-thiazol-2-yl)-N-{(1R)-1-[6-(trifluoromethyl)pyridin-3-yl]ethyl}benzamide] | 24 | 811 |
| CCc1cnc(-c2cc(OCC3(F)CN(C)C3)cc(C(=O)N[C@H](C)c3ccc(C(F)(F)F)nc3)c2)s1 [Example 387, 3-(5-ethyl-1,3-thiazol-2-yl)-5-[(3-fluoro-1-methylazetidin-3-yl)methoxy]-N-{(1R)-1-[6-(trifluoromethyl)pyridin-3-yl]ethyl}benzamide] | 19 | 461 |
| Cc1cnc(-c2cc(OC[C@H]3COCCN3C)cc(C(=O)N[C@H](C)c3ccc(C(F)(F)F)nn3)c2)s1 [Example 388, 3-{[(3R)-4-methylmorpholin-3-yl]methoxy}-5-(5-methyl-1,3-thiazol-2-yl)-N-{(1R)-1-[6-(trifluoromethyl)pyridazin-3-yl]ethyl}benzamide] | 18 | 1350 |
| Cc1cnc(-c2cc(OC[C@@H]3COCCN3C)cc(C(=O)N[C@H](C)c3ccc(C(F)(F)F)nn3)c2)s1 [Example 389, 3-{[(3S)-4-methylmorpholin-3-yl]methoxy}-5-(5-methyl-1,3-thiazol-2-yl)-N-{(1R)-1-[6-(trifluoromethyl)pyridazin-3-yl]ethyl}benzamide] | 18 | 1610 |
| CCN1CCO[C@@H](COc2cc(C(=O)N[C@H](C)c3cnc(C(F)(F)F)nc3)cc(-c3ncc(C)s3)c2)C1 [Example 390, 3-{[(2R)-4-ethylmorpholin-2-yl]methoxy}-5-(5-methyl-1,3-thiazol-2-yl)-N-{(1R)-1-[2-(trifluoromethyl)pyrimidin-5-yl]ethyl}benzamide] | 17 | 804 |
| Cc1cnc(-c2cc(OC[C@H]3CN(CC(F)F)CCO3)cc(C(=O)N[C@H](C)c3cnc(C(F)(F)F)nc3)c2)s1 [Example 391, 3-{[(2R)-4-(2,2-difluoroethyl)morpholin-2-yl]methoxy}-5-(5-methyl-1,3-thiazol-2-yl)-N-{(1R)-1-[2-(trifluoromethyl)pyrimidin-5-yl]ethyl}benzamide] | 19 | 840 |
| COC(=O)N1CCO[C@@H](COc2cc(C(=O)N[C@H](C)c3cnc(C(F)(F)F)nc3)cc(-c3ncc(C)s3)c2)C1 [Example 392, Methyl (2R)-2-{[3-(5-methyl-1,3-thiazol-2-yl)-5-({(1R)-1-[2-(trifluoromethyl)pyrimidin-5-yl]ethyl}carbamoyl)phenoxy]methyl}morpholine-4-carboxylate] | 11 | 411 |
| COC(=O)N1CCO[C@H](COc2cc(C(=O)N[C@H](C)c3cnc(C(F)(F)F)nc3)cc(-c3ncc(C)s3)c2)C1 [Example 393, methyl (2S)-2-{[3-(5-methyl-1,3-thiazol-2-yl)-5-({(1R)-1-[2-(trifluoromethyl)pyrimidin-5-yl]ethyl}carbamoyl)phenoxy]methyl}morpholine-4-carboxylate] | 24 | 1030 |
| Cc1cnc(-c2cc(OCC3CNC3)cc(C(=O)N[C@H](C)c3cnc(C(F)(F)F)nc3)c2)s1 [Example 394, 3-(Azetidin-3-ylmethoxy)-5-(5-methyl-1,3-thiazol-2-yl)-N-{(1R)-1-[2-(trifluoromethyl)pyrimidin-5-yl]ethyl}benzamide] | 82 | 3980 |
| Cc1cnc(-c2cc(OC[C@H]3COCC(=O)N3C)cc(C(=O)N[C@H](C)c3cnc(C(F)(F)F)nc3)c2)s1 [Example 395, 3-{[(3R)-4-methyl-5-oxomorpholin-3-yl]methoxyl}-5-(5-methyl-1,3-thiazol-2-yl)-N-{(1R)-1-[2-(trifluoromethyl)pyrimidin-5-yl]ethyl}benzamide] | 30 | 1310 |
